Results taken from US9708309B2, “Arylcyclopropylamine based demethylase inhibitors of LSD1 and their medical use” (Oryzon Genomics S.A., priority 2010, dated 2017).
“Also recorded” adds a separate entry of the source.

What was measured:
Human recombinant MAO-A = Human recombinant MAO-A (Homo sapiens (Human), UniProt P21397); experiment: biochemical
Source text: Human recombinant monoamine oxidase proteins MAO-A and MAO-B were purchased from Sigma Aldrich. […] In order to monitor MAO enzymatic activities and/or their inhibition rate by inhibitor(s) of interest, a fluorescent-based (inhibitor)-screening assay was set up. 3-(2-Aminophenyl)-3-oxopropanamine (kynuramine dihydrobromide, Sigma Aldrich), a non fluorescent compound was chosen as a substrate. Kynuramine is a non-specific substrate for both MAOs activities. While undergoing oxidative deamination by MAO activities, kynuramine is converted into 4-hydroxyquinoline (4-HQ), a resulting fluorescent product.
The monoamine oxidase activity was estimated by measuring the conversion of kynuramine into 4-hydroxyquinoline. Assays were conducted in 96-well black plates with clear bottom (Corning) in a final volume of 100 μL. […]
After leaving the enzyme(s) interacting with the inhibitor, 60 to 90 μM of kynuramine was added to each reaction for MAO-B and MAO-A assay respectively, and the reaction was left for 1 hour at 37° C. in the dark. […] The conversion of kynuramine to 4-hydroxyquinoline, was monitored by fluorescence (excitation at 320 nm, emission at 360 nm) using a microplate reader (Infinite 200, Tecan). Arbitrary units were used to measure levels of fluorescence produced in the absence and/or in the presence of inhibitor.
The Ki (IC50) of each inhibitor was determined at Vmax/2.

MAO-B = MAO-B (Homo sapiens (Human), UniProt P27338); conditions: ratio of kinact/KI MAO-B over MAO-A
Procedure: For MAO-B, the protein was kept between 1.8 and 3.6 ng/ul (Sigma M7441) and kynuramine (Sigma) at 50 uM was used as substrate.

LSD1 protein = LSD1 protein (Homo sapiens (Human), UniProt O60341); conditions: 25° C., H3-K4me2 peptide
Procedure: The kinetic parameters of LSD1 demethylase inhibition were obtained using the peroxidase-coupled reaction method. […] The final DMSO concentration was 0.7% and constant in all assay wells.
The conversion of the Amplex® Red reagent to resorufin due to generation of H2O2 was continuously monitored by fluorescence (excitation at 540 nm, emission at 590 nm) using a microplate reader (Infinite 200, Tecan). A solution of 1 μM H2O2 was used to calibrate the fluorescence signal and the temperature was kept constant at 25° C.
Briefly, progress curves obtained in the presence of test compound were fit to derive kobs (k) based on the following equation:
The kobs values were then used to derive the kinetic constant by using the following equations (Kitz and Wilson analysis):

Sequence of Human recombinant MAO-A (P21397 whole entry): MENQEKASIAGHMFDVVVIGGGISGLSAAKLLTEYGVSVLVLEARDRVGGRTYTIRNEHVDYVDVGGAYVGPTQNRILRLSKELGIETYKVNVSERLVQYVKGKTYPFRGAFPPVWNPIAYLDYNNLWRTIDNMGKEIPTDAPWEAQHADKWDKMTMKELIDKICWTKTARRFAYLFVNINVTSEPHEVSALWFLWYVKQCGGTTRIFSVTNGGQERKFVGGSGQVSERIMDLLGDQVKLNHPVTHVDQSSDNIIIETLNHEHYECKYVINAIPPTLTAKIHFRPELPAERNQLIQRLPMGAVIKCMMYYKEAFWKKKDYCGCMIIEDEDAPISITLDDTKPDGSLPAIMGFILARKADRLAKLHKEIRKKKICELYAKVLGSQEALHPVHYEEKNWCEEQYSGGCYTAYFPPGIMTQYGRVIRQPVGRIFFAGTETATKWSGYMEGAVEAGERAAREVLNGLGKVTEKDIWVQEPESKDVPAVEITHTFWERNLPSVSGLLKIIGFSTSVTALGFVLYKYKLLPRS
Sequence of MAO-B (P27338 whole entry): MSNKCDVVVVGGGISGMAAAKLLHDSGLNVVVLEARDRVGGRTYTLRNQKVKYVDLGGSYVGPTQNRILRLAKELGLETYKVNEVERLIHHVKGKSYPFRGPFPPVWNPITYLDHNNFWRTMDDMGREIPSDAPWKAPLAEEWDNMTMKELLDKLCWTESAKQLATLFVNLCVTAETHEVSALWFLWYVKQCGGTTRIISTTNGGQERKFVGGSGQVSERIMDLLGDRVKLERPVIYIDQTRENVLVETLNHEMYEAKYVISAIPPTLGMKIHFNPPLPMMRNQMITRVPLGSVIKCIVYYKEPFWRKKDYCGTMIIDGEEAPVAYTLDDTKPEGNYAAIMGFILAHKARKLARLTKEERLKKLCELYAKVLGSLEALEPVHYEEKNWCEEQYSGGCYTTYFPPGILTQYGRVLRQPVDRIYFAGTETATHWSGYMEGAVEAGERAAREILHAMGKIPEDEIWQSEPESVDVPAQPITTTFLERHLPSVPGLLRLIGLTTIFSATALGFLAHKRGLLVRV

Row | Compound | Ki (Human recombinant MAO-A) [µM] | selectivity index kinact/KI for MAO-B/MAO-A (MAO-B) | Catalytic efficiency kinact/KI, LSD1 (LSD1 protein)
1 | Nc1nnc(CN[C@H]2C[C@@H]2c2ccc(OCc3cccc(F)c3)cc2)o1 (relative stereo) [Example 12, 5-((((trans)-2-(4-((3-fluorobenzyl)oxy)phenyl)cyclopropyl)amino)methyl)-1,3,4-oxadiazol-2-amine] | 1 to 40 |  | 
2 | Nc1nnc(CN[C@H]2C[C@@H]2c2ccc(OCc3ccc(Cl)cc3)cc2)o1 (relative stereo) [Example 14, 5-((((trans)-2-(4-((4-chlorobenzyl)oxy)phenyl)cyclopropyl)amino)methyl)-1,3,4-oxadiazol-2-amine] | 1 to 40 |  | 
3 | C#CCN[C@@H]1CCc2ccccc21 [Rasagiline] |  | 120 | not active; also recorded: Inactive
